Laboratory results as given in US20060235062A1, “Novel heterocyclic analogs of diphenylethylene compounds” (THERACOS, INC., priority 2002, published 2006).

Experiments:
AIA rats = experiment: Cancellous bone loss in adjuvant induced arthritic (AIA) rats, MicroCT of right proximal tibia; format: in vivo, male Lewis rats
ob/ob mice = experiment: Liver enzymes AST/GOT and ALT/GPT in sera of ob/ob mice; format: in vivo; details: 21 days, orally 50 mg/kg, vs untreated or troglitazone-treated mice
IkappaB = experiment: LPS-stimulated phosphorylation of IkappaB in RAW 264.7 cells; format: cell-based; details: RAW 264.7 cells, 3, 10 or 30, LPS plus IFN-gamma, anti-phospho-IkappaB blot
PPAR-gamma = molecular target: T1, PPAR-gamma (Homo sapiens, UniProt P37231); experiment: Preliminary PPAR-gamma competition binding assays; details: data not shown
T1 sequence (P37231 1-505): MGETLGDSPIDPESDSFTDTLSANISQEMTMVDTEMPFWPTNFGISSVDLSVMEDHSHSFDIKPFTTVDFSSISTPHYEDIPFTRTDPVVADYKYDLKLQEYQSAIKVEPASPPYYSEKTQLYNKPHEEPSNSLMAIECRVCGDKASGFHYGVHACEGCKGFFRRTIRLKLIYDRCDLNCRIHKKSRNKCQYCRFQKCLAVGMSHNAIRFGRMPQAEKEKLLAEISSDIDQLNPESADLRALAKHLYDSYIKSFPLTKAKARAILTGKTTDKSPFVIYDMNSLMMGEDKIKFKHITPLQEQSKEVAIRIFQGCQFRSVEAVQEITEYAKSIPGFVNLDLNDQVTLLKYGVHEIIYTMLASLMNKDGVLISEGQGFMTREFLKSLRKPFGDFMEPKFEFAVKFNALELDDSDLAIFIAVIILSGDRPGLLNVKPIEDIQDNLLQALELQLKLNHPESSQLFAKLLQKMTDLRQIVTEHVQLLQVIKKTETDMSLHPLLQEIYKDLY

DBA/1 Lac mice = experiment: Collagen-induced arthritis in mice; format: in vivo; details: 50 mg/kg orally daily for 17 days
TNF-alpha = experiment: LPS-induced TNF-alpha production in RAW cells (ELISA); format: cell-based; details: RAW cells, 0.1, 1, 10, 50 or 100 pM, 1 hour preincubation, LPS 6 hours, FIG. 9
COX-1 = molecular target: T2, COX-1 (Mus musculus, UniProt P22437); experiment: COX-1 activity in RAW cells; format: cell-based; details: 0.1-100 μM
T2 construct: aliquots used to determine COX-2 and COX-1 activity; endogenous in cells; host or cells: RAW (RAW 264.7) cells
T2 sequence (P22437 27-602): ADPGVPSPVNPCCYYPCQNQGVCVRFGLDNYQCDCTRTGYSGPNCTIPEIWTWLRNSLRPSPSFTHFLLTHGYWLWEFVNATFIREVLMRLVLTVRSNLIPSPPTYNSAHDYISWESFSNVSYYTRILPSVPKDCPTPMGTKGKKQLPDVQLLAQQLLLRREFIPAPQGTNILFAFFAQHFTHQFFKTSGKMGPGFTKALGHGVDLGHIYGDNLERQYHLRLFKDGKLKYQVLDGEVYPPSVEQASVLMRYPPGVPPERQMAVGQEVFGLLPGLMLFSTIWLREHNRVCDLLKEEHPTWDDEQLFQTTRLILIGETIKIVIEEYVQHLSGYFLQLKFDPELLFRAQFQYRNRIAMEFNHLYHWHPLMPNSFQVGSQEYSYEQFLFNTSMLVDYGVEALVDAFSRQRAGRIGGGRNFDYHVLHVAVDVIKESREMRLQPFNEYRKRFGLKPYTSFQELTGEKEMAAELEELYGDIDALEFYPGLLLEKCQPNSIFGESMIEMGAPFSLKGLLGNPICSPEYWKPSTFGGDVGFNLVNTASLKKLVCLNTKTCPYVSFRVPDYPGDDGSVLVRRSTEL
Method: After 1 hour LPS (0.1 pg/mL) was added and cells were incubated an additional 6 hours. Cell supernatant was then collected, aliquoted and frozen at −70° C., and aliquots used to determine COX-2 and COX-1 activity. Compound 11, but not rosiglitazone, inhibited the activity of COX-2 (as measured by PGE2 production in a 50 μl sample).

NF-kB p65 = NF-kB p65 activation in LPS-stimulated RAW cells (ELISA); format: cell-based; details: 10 μM, 1 μg/ml LPS 15 min, FIG. 15
ZDF rats = experiment: Antihyperglycemic activity in Zucker diabetic fatty rats; format: in vivo
3T3-L1 fibroblasts = experiment: Adipogenesis (triglyceride accumulation) in 3T3-L1 fibroblasts
Method: After two days of growth in 6-well plates, cells were treated either with vehicle (0.1% DMSO) or with compounds for ten days. Fresh medium with compounds or vehicle was replenished every 48 h. Cells were washed with PBS twice and fixed in 10% formalin (Sigma) in PBS. After washing in PBS, cells were stained with freshly diluted Oil Red O in isopropanol for 1 h at room temperature. The cells were washed five times with PBS and visualized under an Olympus BH2 microscope. Quantitative accumulation of triglyceride was also measured under similar experimental conditions, except in this case cells were plated in 100-mm tissue culture dishes. Triglyceride was extracted with methanol:chloroform (2:1) mixture. […] Extracted triglyceride was measured by a colorimetric assay (GPO-Trinder, Sigma) according to manufacturer instructions.
After 14 days cells were stained with Oil Red O, counterstained with methylene blue for visual assessment (FIG. 23B) and assayed for triglyceride accumulation.

IL-6 = experiment: LPS-induced IL-6 production in RAW cells (ELISA); format: cell-based; details: RAW cells, 0.1, 1, 10, 50 or 100 pM, FIG. 10
IL-1-beta = experiment: LPS-induced IL-1-beta production in RAW cells (ELISA); format: cell-based; details: RAW cells, 0.1, 1, 10, 50 or 100 pM, FIG. 11

COC(=O)C(=Cc1cc(OC)cc(OC)c1)c1ccc(Oc2ccc(CC3SC(=O)NC3=O)cc2)cc1 (stereo not drawn) [Compound 11, 3-(3,5-Dimethoxyphenyl)-2-{4-[4-(2,4-dioxothiazolidin-5-ylmethyl)-phenoxy]-phenyl}-acrylic acid methyl ester]
less cancellous bone lost (AIA rats; AIA rats, treated vs vehicle): ~50% | C.Th (AIA rats; right proximal tibia): 186 ± 25 μm | Conn. Dens (AIA rats; right proximal tibia): 38.3 ± 19.7 l/mm3 | SMI (0-3) (AIA rats; right proximal tibia): 2.8 ± 0.3 | Tb.N (AIA rats; right proximal tibia): 2.6 ± 0.5 l/mm | BV/TV (AIA rats; right proximal tibia, compound 11 50 mg/kg oral, etanercept 1.67 mg/kg i.p., once daily): 13.7 ± 4.7% | AST level (ob/ob mice; FIG. 7A): not elevated | ALT level (ob/ob mice; FIG. 7B): did not elevate | inhibition of the phosphorylation of IkappaB (IkappaB): dose-dependent inhibition | affinity (Ki) of PPAR-gamma, less than for rosiglitazone (PPAR-gamma): 6.5 fold | body weight vs vehicle group (DBA/1 Lac mice; FIG. 13A): no change | clinical scores vs vehicle treated group (DBA/1 Lac mice; FIG. 13B): significantly lower | joints affected vs vehicle treated group (DBA/1 Lac mice; FIG. 13C): significantly lower | paw thickness vs vehicle treated group (DBA/1 Lac mice; FIG. 13D): significantly lower | inhibition of LPS-induced TNF-alpha production (TNF-alpha): better inhibitor of TNF-alpha than rosiglitazone | inhibition of COX-1 activity (COX-1): Neither compound inhibited | inhibition of the activation of NF-kB (p65) (NF-kB p65): inhibited | glucose levels (ZDF rats): normalizes glucose levels | more weight gained than control animals (ZDF rats; 50 mg/kg oral once daily, 8 to 9 days): 13% | decrease in blood glucose levels (ZDF rats; 50 mg/kg oral once daily, 8 to 9 days, FIG. 21): 50 % vs baseline | maximal triglyceride accumulated, increase over control (3T3-L1 fibroblasts; 3T3-L1 fibroblasts, 0.1, 1, 10 μM, no dexamethasone, insulin, IBMX, FIG. 23A): 3.96 fold | cytotoxic concentrations (3T3-L1 fibroblasts; 3T3-L1 system, data not shown): ≥ 100 µM | inhibition of LPS-induced IL-6 production (IL-6): better inhibitor of IL-6 than rosiglitazone | blood glucose level (db/db mice; db/db male mice, oral 50 mg/kg, 15 days, FIG. 1A): substantial reduction | decrease in blood glucose levels (db/db mice; db/db mice, 50 mg/kg oral once daily, 8 to 9 days, FIG. 21): 32 % vs. baseline | blood glucose lowering effect (db/db mice; db/db mice, 50 mg/kg/day orally, 14 days, FIG. 16A): dramatic, comparable blood glucose lowering effects | drop in triglyceride levels (db/db mice; db/db mice, after 15 days of treatment, FIG. 5A): 24% | drop in FFA levels (db/db mice; db/db mice, after 15 days of treatment, FIG. 5B): 34% | drop in the GHb level (db/db mice; db/db mice, after 15 days of treatment, FIG. 5C): 0.7% | increase in the serum leptin level compared to the control group (db/db mice; db/db mice, after 15 days of treatment, FIG. 5D): 23 °/a | glucose lowering effect, maximal at 24 hrs (db/db mice; db/db mice, single oral dose 50 mg/kg, at 24 hrs): 23 % of 0 min | duration of effect on blood glucose (db/db mice; db/db mice, single oral dose, FIG. 4): ≥ 24 h | inhibition of LPS-induced IL-1-beta production (IL-1-beta): inhibited IL-1-beta better than rosiglitazone
